Experimental data: patent US20250195521A1 (Revolution Medicines, Inc., priority 2020, published 2025)
Where “and” joins values, the source holds several entries; their conditions need not be identical. Equal values may be shown once. Read-outs that look alike come from different tables or passages of the source.

Tests used:
[1] = biological target: KRAS G13D (Homo sapiens (Human), UniProt P01116+P62937, G13D); assay: Ras-Raf disruption/FRET/MOA assay (BRAF RBD, Cyclophilin A); assay type: biochemical; details: read-out: KRAS G13D FRET data IC50
Sequence of KRAS G13D (P01116 other isoform, or with tags, fused parts or gaps G13D): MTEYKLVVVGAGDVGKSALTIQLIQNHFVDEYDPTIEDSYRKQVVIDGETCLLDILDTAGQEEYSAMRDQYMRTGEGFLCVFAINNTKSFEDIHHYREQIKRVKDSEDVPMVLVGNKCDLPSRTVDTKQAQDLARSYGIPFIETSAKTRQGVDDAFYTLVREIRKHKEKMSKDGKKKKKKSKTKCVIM
Sequence of KRAS G13D (P62937 whole entry): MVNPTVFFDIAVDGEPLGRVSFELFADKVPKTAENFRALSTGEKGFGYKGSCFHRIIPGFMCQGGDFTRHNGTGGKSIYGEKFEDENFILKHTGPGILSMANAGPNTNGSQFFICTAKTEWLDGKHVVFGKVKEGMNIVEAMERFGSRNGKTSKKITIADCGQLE
Method in brief: (§1)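 TR-FRET readout: anti-His Eu-W1024 (10 nM) and anti-GST allophycocyanin (50 nM) added after 3 h, 25° C compound incubation, then 1.5 h more. Decrease in FRET ratio versus DMSO wells marks Ras:RAF disruption; IC50 reported.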

[2] = biological target: KRAS WT (Homo sapiens (Human), UniProt P01116+P62937); assay: as above; assay type: biochemical; details: read-out: KRAS WT FRET data IC50
Sequence of KRAS WT (P01116 other isoform, or with tags, fused parts or gaps): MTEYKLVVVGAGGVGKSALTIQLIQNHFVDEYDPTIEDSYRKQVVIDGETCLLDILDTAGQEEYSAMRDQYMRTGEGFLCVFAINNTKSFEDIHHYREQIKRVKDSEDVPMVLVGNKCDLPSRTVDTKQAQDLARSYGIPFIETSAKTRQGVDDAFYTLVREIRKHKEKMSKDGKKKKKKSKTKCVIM
Sequence of KRAS WT (P62937 whole entry): as the sequence (P62937 whole entry) above
Method in brief: as §1

[3] = biological target: NRAS G12C (Homo sapiens (Human), UniProt P01111+P62937, G12C); assay: as above; assay type: biochemical; details: read-out: NRAS G12C FRET data IC50
Sequence of NRAS G12C (P01111 whole entry G12C): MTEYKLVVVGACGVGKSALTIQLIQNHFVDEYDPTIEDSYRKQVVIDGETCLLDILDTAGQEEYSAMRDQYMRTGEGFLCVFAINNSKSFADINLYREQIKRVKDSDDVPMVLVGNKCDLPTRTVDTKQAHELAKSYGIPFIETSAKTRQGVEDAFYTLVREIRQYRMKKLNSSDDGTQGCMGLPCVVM
Sequence of NRAS G12C (P62937 whole entry): as the sequence (P62937 whole entry) above
Method in brief: as §1

[4] = biological target: KRAS G12C (Homo sapiens (Human), UniProt P01116+P62937, G12C); assay: as above; assay type: biochemical; details: read-out: KRAS G12C FRET IC50
Sequence of KRAS G12C (P01116-2 other isoform, or with tags, fused parts or gaps G12C): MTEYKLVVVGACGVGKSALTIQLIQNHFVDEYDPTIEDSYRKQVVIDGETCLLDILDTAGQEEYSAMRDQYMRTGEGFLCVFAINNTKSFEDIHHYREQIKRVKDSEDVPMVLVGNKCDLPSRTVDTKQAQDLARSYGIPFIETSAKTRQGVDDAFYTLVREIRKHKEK
Sequence of KRAS G12C (P62937 whole entry): as the sequence (P62937 whole entry) above
Method in brief: as §1

[5] = biological target: KRAS G12V (Homo sapiens (Human), UniProt P01116+P62937, G12V); assay: as above; assay type: biochemical; details: read-out: KRAS G12V FRET IC50
Sequence of KRAS G12V (P01116 other isoform, or with tags, fused parts or gaps G12V): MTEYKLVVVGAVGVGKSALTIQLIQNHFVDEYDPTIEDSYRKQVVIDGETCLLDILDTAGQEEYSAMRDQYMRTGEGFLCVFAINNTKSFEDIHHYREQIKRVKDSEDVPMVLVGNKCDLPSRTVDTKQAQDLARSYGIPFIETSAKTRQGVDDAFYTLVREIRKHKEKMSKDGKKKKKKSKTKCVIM
Sequence of KRAS G12V (P62937 whole entry): as the sequence (P62937 whole entry) above
Method in brief: as §1

[6] = biological target: KRAS G12S (Homo sapiens (Human), UniProt P01116+P62937, G12S); assay: as above; assay type: biochemical; details: read-out: KRAS G12S FRET IC50
Sequence of KRAS G12S (P01116 other isoform, or with tags, fused parts or gaps G12S): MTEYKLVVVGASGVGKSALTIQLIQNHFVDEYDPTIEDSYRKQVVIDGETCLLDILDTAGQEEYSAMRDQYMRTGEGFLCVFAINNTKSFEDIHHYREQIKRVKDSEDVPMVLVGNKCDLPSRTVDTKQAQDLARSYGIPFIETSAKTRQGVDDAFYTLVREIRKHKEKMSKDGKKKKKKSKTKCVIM
Sequence of KRAS G12S (P62937 whole entry): as the sequence (P62937 whole entry) above
Method in brief: as §1

[7] = biological target: KRAS G12D (Homo sapiens (Human), UniProt P01116+P62937, G12D); assay: as above; assay type: biochemical; details: read-out: KRAS G12D FRET IC50
Sequence of KRAS G12D (P01116 other isoform, or with tags, fused parts or gaps G12D): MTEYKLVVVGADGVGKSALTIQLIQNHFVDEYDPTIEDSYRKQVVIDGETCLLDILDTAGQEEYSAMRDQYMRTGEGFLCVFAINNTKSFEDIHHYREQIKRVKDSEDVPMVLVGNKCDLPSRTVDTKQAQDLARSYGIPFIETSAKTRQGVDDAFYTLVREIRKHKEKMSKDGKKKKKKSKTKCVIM
Sequence of KRAS G12D (P62937 whole entry): as the sequence (P62937 whole entry) above
Method in brief: as §1

[8] = biological target: KRAS G13C (Homo sapiens (Human), UniProt P01116+P62937, G13C); assay: as above; assay type: biochemical; details: read-out: KRAS G13C FRET IC50
Sequence of KRAS G13C (P01116 other isoform, or with tags, fused parts or gaps G13C): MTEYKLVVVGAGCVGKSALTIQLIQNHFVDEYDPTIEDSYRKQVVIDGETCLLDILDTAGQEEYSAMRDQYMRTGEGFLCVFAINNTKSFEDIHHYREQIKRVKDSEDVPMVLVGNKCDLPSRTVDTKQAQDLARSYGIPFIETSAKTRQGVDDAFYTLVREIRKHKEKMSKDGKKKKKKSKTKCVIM
Sequence of KRAS G13C (P62937 whole entry): as the sequence (P62937 whole entry) above
Method in brief: as §1

[9] = tested on: Capan-1 cells (K-Ras G12V); assay: CellTiter-Glo cell viability, Capan-1; assay type: cell-based, human; details: K-Ras G12V, 5-day treatment, read-out: Capan-1 Cell Viability IC50
Method in brief: (§2)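 Cells seeded, compound dispensed straight into wells, 5-day exposure. Plates brought to room temperature ~30 min, CellTiter-Glo luminescence measured. Normalized to DMSO (%), 4-parameter logistic fit.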

[10] = biological target: K-Ras G12C(GMP-PNP) binding to BRAF RBD (Homo sapiens (Human), UniProt P01116+P62937, G12C); assay: Disruption of BRAF RBD interaction with K-Ras (FRET / MOA assay), K-Ras G12C; assay type: biochemical; details: read-out: KRAS G12C FRET IC50
Sequence of K-Ras G12C(GMP-PNP) binding to BRAF RBD (P01116 other isoform, or with tags, fused parts or gaps G12C): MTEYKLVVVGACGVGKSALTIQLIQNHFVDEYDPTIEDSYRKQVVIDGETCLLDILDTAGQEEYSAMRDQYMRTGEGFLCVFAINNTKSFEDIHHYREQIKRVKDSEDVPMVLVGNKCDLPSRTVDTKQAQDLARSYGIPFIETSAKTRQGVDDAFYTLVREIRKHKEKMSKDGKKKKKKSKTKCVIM
Sequence of K-Ras G12C(GMP-PNP) binding to BRAF RBD (P62937 whole entry): as the sequence (P62937 whole entry) above
Text: Note—The following protocol describes a procedure for monitoring disruption of K-Ras G12C(GMP-PNP) binding to BRAF^RBD by a compound of the invention. This protocol may also be executed substituting other Ras proteins or nucleotides.
The purpose of this biochemical assay was to measure the ability of test compounds to facilitate ternary complex formation between a nucleotide-loaded K-Ras isoform and Cyclophilin A; the resulting ternary complex disrupts binding to a BRAF^RBD construct, inhibiting K-Ras signaling through a RAF effector. Data is reported as IC50 values.
Compound was present in plate wells as a 10-point 3-fold dilution series starting at a final concentration of 30 μM. After incubation at 25° C. for 3 hours, a mixture of Anti-His Eu—W1024 and anti-GST allophycocyanin was then added to assay sample wells at final concentrations of 10 nM and 50 nM, respectively, and the reaction incubated for an additional 1.5 hours. […] Compounds that facilitate disruption of a K-Ras: RAF complex were identified as those eliciting a decrease in the TR-FRET ratio relative to DMSO control wells.

[11] = tested on: NCI-H358 cells (K-Ras G12C); assay: CellTiter-Glo cell viability, NCI-H358; assay type: cell-based, human; details: K-Ras G12C, 5-day treatment, read-out: H358 Cell Viability IC50
Method in brief: as §2

[12] = tested on: NCI-H358 (K-Ras G12C); assay: CellTiter-Glo cell viability assay, NCI-H358; assay type: cell-based, human; details: 5-day treatment, read-out: H358 Cell Viability assay data (K-Ras G12C, IC50)
Method in brief: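 Cells seeded, compound added directly to plates; day 5: plates to RT ~30 min, CellTiter-Glo luminescence; (sample/avg DMSO)*100; 4-parameter fit.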

[13] = tested on: K-Ras G12C (NCI-H358 cells); assay: Potency assay: pERK in NCI-H358 cells; assay type: cell-based, human; details: NCI-H358 cells, 4 hours; read-out: pERK EC50 (H358 KRAS G12C)
Method in brief: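 Cells plated the day before were exposed for 4 h at 37° C, 5% CO2 to a 10-point, 3-fold DMSO dilution series (10 mM top stock), in duplicate. Phospho-ERK was read by AlphaLISA SureFire Ultra or by In-Cell Western with DRAQ5 DNA stain, and IC50 came from a 4-parameter sigmoidal fit.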

SMILES	IC50 [1] [nM]	IC50 [2] [nM]	IC50 [3] [nM]	IC50 [4] [nM]	IC50 [5] [nM]	IC50 [6] [nM]	IC50 [7] [nM]	IC50 [8] [nM]	IC50 [10]	IC50 ([11]; Homo sapiens, NCI-H358, 120 h) [nM]	IC50 ([12]; Homo sapiens, NCI-H358, 120 h) [nM]	IC50 ([9]; Homo sapiens, CAPAN-1, 120 h) [nM]	EC50 [13] [nM]	IC50 [9] [nM]	IC50 [11] [nM]	IC50 [12] [nM]
CCn1c(-c2cccnc2[C@H](C)OC)c2c3cc(ccc31)-c1cc(O)cc(c1)C[C@H](NC(=O)[C@H](C(C)C)N(C)C(=O)[C@H]1C[C@@H]1F)C(=O)N1CCC[C@H](N1)C(=O)OCC(C)(C)C2 [Compound A161]	100 to 1000	100 to 1000	100 to 1000	100 to 1000	100 to 1000	100 to 1000	100 to 1000	100 to 1000	100 to 1000 nM	100 to 1000	> 10000	100 to 1000				
CCn1c(-c2cccnc2[C@H](C)OC)c2c3cc(ccc31)-c1cc(O)cc(c1)C[C@H](NC(=O)[C@H](C(C)C)N(C)C(=O)[C@@H]1[C@@H]3CNC[C@@H]31)C(=O)N1CCC[C@H](N1)C(=O)OCC(C)(C)C2 [Compound A164]	10 to 100	10 to 100	10 to 100	10 to 100	10 to 100	10 to 100	10 to 100	10 to 100	10 to 100 nM	10 to 100	100 to 1000	100 to 1000				
CCn1c(-c2cnccc2COC)c2c3cc(ccc31)-c1cc(O)cc(c1)C[C@H](NC(=O)[C@H](C(C)C)N(C)C(=O)[C@H]1CNC[C@H]1C(F)(F)F)C(=O)N1CCC[C@H](N1)C(=O)OCC(C)(C)C2 [Compound A216]	10 to 100	10 to 100	100 to 1000	10 to 100	1000 to 10000	100 to 1000	100 to 1000	10 to 100	100 to 1000 nM and 1000 to 10000 nM	1000 to 10000		1000 to 10000				
CCn1c(-c2cccnc2[C@H](C)OC)c2c3cc(ccc31)-c1csc(n1)C[C@H](NC(=O)[C@H]1[C@H](C)[C@@H]1C)C(=O)N1CCC[C@H](N1)C(=O)OCC(C)(C)C2 [Compound A227, (1R,2R,3S)—N-((6^3S,4S,Z)-1^1-ethyl-1^2-(2-((S)-1-methoxyethyl)pyridin-3-yl)-10,10-dimethyl-5,7-dioxo-6^1,6^2,6^3,6^4,6^5,6^6-hexahydro-1^1H-8-oxa-2 (4,2)-thiazola-1 (5,3)-indola-6 (1,3)-pyridazinacycloundecaphane-4-yl)-2,3-dimethylcyclopropane-1-carboxamide]								10 to 100	100 to 1000 nM				< 5000	> 10000	1000 to 10000	100 to 1000

More lines, main results first:

IC50 [1] [nM]	IC50 [2] [nM]	IC50 [3] [nM]	IC50 [4] [nM]	IC50 [5] [nM]	IC50 [6] [nM]	IC50 [7] [nM]	IC50 [8] [nM]	IC50 [10]	IC50 ([11]; Homo sapiens, NCI-H358, 120 h) [nM]	IC50 ([12]; Homo sapiens, NCI-H358, 120 h) [nM]	SMILES	IC50 ([9]; Homo sapiens, CAPAN-1, 120 h) [nM]	EC50 [13] [nM]	IC50 [9] [nM]	IC50 [11] [nM]	IC50 [12] [nM]
10 to 100	10 to 100	10 to 100	10 to 100	10 to 100	10 to 100	10 to 100	10 to 100	100 to 1000 nM and > 10000 nM		> 10000	CCn1c(-c2cccnc2[C@H](C)OC)c2c3cc(ccc31)-c1cc(O)cc(c1)C[C@H](NC(=O)[C@H](C(C)C)N(C)C(=O)[C@@H]1C[C@@H]1C)C(=O)N1CCC[C@H](N1)C(=O)OCC(C)(C)C2 [Compound A223]	100 to 1000				
10 to 100	10 to 100	10 to 100	10 to 100	100 to 1000	100 to 1000	10 to 100	10 to 100	> 10000 nM	100 to 1000	> 10000	CCn1c(-c2cccnc2[C@H](C)OC)c2c3cc(ccc31)-c1cc(O)cc(c1)C[C@H](NC(=O)[C@H](C(C)C)N(C)C(=O)[C@H]1CN[C@@H]3CCO[C@H]13)C(=O)N1CCC[C@H](N1)C(=O)OCC(C)(C)C2 [Compound A231]	1000 to 10000				
